Laboratory results: patent US20190315823A1, “SMALL CATIONIC ANTI-BIOFILM AND IDR PEPTIDES” (priority 2013, published 2019)
Ends that are not written are not given here.

Columns and labels:
[1] = tested on: LPS-stimulated human peripheral blood mononuclear cells (IL1-β); type: cell-based; conditions: Table 12, cells stimulated with 10 ng/ml LPS; for IL1β Production: LPS alone 1313 (HH2 derivatives), 1927 (1018 derivatives), 2455 (1002 and hybrid peptides) pg/ml
[2] = tested on: human peripheral blood mononuclear cells (MCP-1); test: SPOT-synthesized derivative screen: production of chemokine MCP-1; type: cell-based; conditions: Table 12, No LPS, human PBMC, peptide at ~18-24 μM; for MCP1: background subtracted 139 (HH2 derivatives), 170 (1018 derivatives), 242 (1002 and hybrid peptides) pg/ml
Method in brief: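 MCP-1 was quantified by capture ELISA in cleared culture supernatants of treated human peripheral blood mononuclear cells. Cells came from heparinized volunteer blood via Ficoll gradient and were seeded at 0.75 to 1×10^6 cells/ml (37 °C, 5% CO2).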

[3] = tested on: methicillin resistant Staphylococcus aureus (MRSA) biofilm; conditions: approximate peptide concentration […] (around 3 μg/ml); compared to untreated samples
Method in brief: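 Peptide was present from inoculation onward, with bacteria seeded at 1/100 from overnight cultures into BM2 biofilm medium or Luria Broth. Crystal violet staining of surface-attached cells (A595) quantified biofilm reduction at 22–46 h. K. pneumoniae was additionally screened in a real-time Bioflux flow device for some peptides.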

Row | Substance | Fold change in IL1β relative to no peptide LPS stimulated cells [1] | IL1β Production [1] | Fold increase in MCP1 cf. untreated cells [2] | MCP1 [2] | % Biofilm inhibition [3]
1 | 1018-I8: single substituted 1018 peptide (VRLIVAVIIWRR-NH2) [Peptide 1018-I8] | 0.86 | 1125 pg/mL | 1.0 | 2 pg/mL | 39%
2 | 1018-G5: single substituted 1018 peptide (VRLIGAVRIWRR-NH2) [Peptide 1018-G5] | 1.23 | 1620 pg/mL | 13 | 2090 pg/mL | 38%
3 | 1018-A9: single substituted 1018 peptide (VRLIVAVRAWRR-NH2) [Peptide 1018-A9] | 0.90 | 1176 pg/mL | 0.5 | -88 pg/mL | 49%
4 | 1002-Q12: single substituted 1002 peptide (VQRWLIVWRIRQ-NH2) [Peptide 1002-Q12] | 0.05 | 127 pg/mL | 6.1 | 1225.7 pg/mL | 65%
5 | 1002-R7: single substituted 1002 peptide (VQRWLIRWRIRK-NH2) [Peptide 1002-R7] | 0.16 | 382 pg/mL | 2.1 | 270.8 pg/mL | 58%
6 | HH2-I6: single substituted HH2 peptide (VQLRIIVAVIRA-NH2) | 0.75 | 984 pg/mL | 8.1 | 1206 pg/mL | 45%
7 | 1018-G4: single substituted 1018 peptide (VRLGVAVRIWRR-NH2) [Peptide 1018-G4] | 0.39 | 511 pg/mL | 1.2 | 32 pg/mL | 63%
8 | HH2-G8: single substituted HH2 peptide (VQLRIRVGVIRA-NH2) | 1.02 | 1344 pg/mL | 1.9 | 157 pg/mL | 54%
9 | 1018-I6: single substituted 1018 peptide (VRLIVIVRIWRR-NH2) [Peptide 1018-I6] | 0.44 | 582 pg/mL | 1.6 | 110 pg/mL | 65%
10 | HH2-L8: single substituted HH2 peptide (VQLRIRVLVIRA-NH2) | 0.55 | 725 pg/mL | 107 | 17953 pg/mL | 50%
11 | 1018-K3: single substituted 1018 peptide (VRKIVAVRIWRR-NH2) [Peptide 1018-K3] | 1.13 | 1489 pg/mL | 49 | 8203 pg/mL | 15%
12 | HH2-I1: single substituted HH2 peptide (IQLRIRVAVIRA-NH2) | 0.84 | 1103 pg/mL | 51 | 8573 pg/mL | 73%
13 | 1018-V10: single substituted 1018 peptide (VRLIVAVRIVRR-NH2) [Peptide 1018-V10] | 0.28 | 370 pg/mL | 1.2 | 29 pg/mL | 50%
14 | HH2-R3: single substituted HH2 peptide (VQRRIRVAVIRA-NH2) | 1.33 | 1746 pg/mL | 60 | 9987 pg/mL | 0%
15 | HH2-A6: single substituted HH2 peptide (VQLRIAVAVIRA-NH2) | 1.06 | 1391 pg/mL | 1.8 | 137 pg/mL | 41%
16 | 1018-Q6: single substituted 1018 peptide (VRLIVQVRIWRR-NH2) [Peptide 1018-Q6] | 0.14 | 186 pg/mL | 0.7 | -54 pg/mL | 55%
17 | HH2-V4: single substituted HH2 peptide (VQLVIRVAVIRA-NH2) | 0.67 | 877 pg/mL | 20 | 3216 pg/mL | 60%
18 | HH2-L7: single substituted HH2 peptide (VQLRIRLAVIRA-NH2) | 1.05 | 1378 pg/mL | 19 | 3138 pg/mL | 68%
19 | HH2-K8: single substituted HH2 peptide (VQLRIRVKVIRA-NH2) | 0.65 | 851 pg/mL | 9.8 | 1501 pg/mL | 73%
20 | 1018-K12: single substituted 1018 peptide (VRLIVAVRIWRK-NH2) [Peptide 1018-K12] | 0.10 | 127 pg/mL | 4.1 | 531 pg/mL | 67%
21 | 1018-A3: single substituted 1018 peptide (VRAIVAVRIWRR-NH2) [Peptide 1018-A3] | 0.57 | 748 pg/mL | 0.4 | -110 pg/mL | 49%
22 | HH2-I7: single substituted HH2 peptide (VQLRIRIAVIRA-NH2) | 0.68 | 897 pg/mL | 8.8 | 1332 pg/mL | 69%
23 | 1002-Q3: single substituted 1002 peptide (VQQWLIVWRIRK-NH2) [Peptide 1002-Q3] | 0.05 | 127 pg/mL | 2.4 | 343.8 pg/mL | 70%
24 | 1018-K5: single substituted 1018 peptide (VRLIKAVRIWRR-NH2) [Peptide 1018-K5] | 1.31 | 1722 pg/mL | 0.9 | -10 pg/mL | 29%
25 | 1002-L8: single substituted 1002 peptide (VQRWLIVLRIRK-NH2) [Peptide 1002-L8] | 0.06 | 135 pg/mL | 10.8 | 2367.1 pg/mL | 57%
26 | 1002-R1: single substituted 1002 peptide (RQRWLIVWRIRK-NH2) [Peptide 1002-R1] | 0.05 | 127 pg/mL | 5.3 | 1043.2 pg/mL | 67%
27 | HH2-G4: single substituted HH2 peptide (VQLGIRVAVIRA-NH2) | 1.21 | 1582 pg/mL | 148 | 25045 pg/mL | 40%
28 | HH2-I9: single substituted HH2 peptide (VQLRIRVAIIRA-NH2) | 0.75 | 980 pg/mL | 50 | 8276 pg/mL | 73%
29 | 1018-L9: single substituted 1018 peptide (VRLIVAVRLWRR-NH2) [Peptide 1018-L9] | 0.13 | 171 pg/mL | 1.4 | 66 pg/mL | 52%
30 | 1002-R5: single substituted 1002 peptide (VQRWRIVWRIRK-NH2) [Peptide 1002-R5] | 0.14 | 349 pg/mL | 0.9 | -36.2 pg/mL | 62%
